Experimental data: patent publication US12090147B2, “Combination therapy with 2-(4-chlorophenyl)-N-((2-(2,6-dioxopiperidin-3-yl)-1-oxoisoindolin-5-yl)methyl)-2,2-difluoroacetamide” (Celgene Corporation, priority 2019, dated 2024)
Each block holds one compound with its values, some of them ahead of it. Residues, ends and D or L forms follow the SMILES beside them. *: point of attachment. Cbz = O=C(OCc1ccccc1)*; CH2F = FC*

Key:
Format in all cases: cell-based, human
MV4-11 = assay: Cytokine induction, electrochemiluminescence assay of culture supernatant; conditions: MV411; 1000 nM Compound 1 with 10 μM inhibitor
Method: (§1) For cytokine assays on AML cell lines, cells were seeded at 1 million per mL, 3 mL per well of 6-well plates and allowed set overnight. The next day, cells were treated with 3 μL 1000× working stock of compounds of interest.
(§2) Human AML cell lines, HL-60 (CCL-240), KG-1 (CCL-246), ML-2 (ACC-15), MOLM-13 (ACC-554), MV-4-11 (CRL-9591), NOMO-1 (ACC-542), TF-1 (CRL-2003), THP-1 (TIB-202), and U937 (CRL-1593) were obtained from American Type Culture Collection (ATCC; Manassas, VA) or Deutsche Sammlung von Mikroorganismen and Zellkulturen (DSMZ, Germany) cell banks. Acute myeloid leukemia cell lines were maintained in RPMI-1640 (ATCC Cat No. 30-2001) containing 20% fetal bovine serum (FBS) (Corning Cat No. 35-010-CV) and maintained in humidified incubators at 5% carbon dioxide.
(§3) IL-1α (Meso Scale Disgnostics, Cat No. K151RBD), IL-1β (Meso Scale Disgnostics, Cat No. K151QPD), IL-1RA (Meso Scale Disgnostics, Cat No. K151WTD), IL-18 (Meso Scale Disgnostics, Cat No. K151VJK), TNFa (Meso Scale Disgnostics, Cat No. K151QWD), VEGF Meso Scale Disgnostics, Cat No. K151RHD) levels were measured by (Meso Scale Disgnostics assay kits following manufacturer's instructions. Measurements were made on a MESO™ SECTOR S 600 plate reader (Meso Scale Disgnostics).
(§4) Cell proliferation (CTG) and caspase 3/7 activation (IncuCyte) were analyzed using GraphPad Prism. Electrochemiluminescence data was analyzed using MSD Discovery Workbench platform.
(§5) The level of intracellular pro IL-1β and released IL-1β in eight AML cell lines and normal PBMC treated with a titration of Compound 1 over a 48 hour period was assessed. (see FIGS. 1A-1C, Table 2). Supernatant IL-1βb level was induced over 5 fold in 6 out of 8 AML cell lines and normal PBMC upon Compound 1 treatment compared to DMSO (FIGS. 1A, 1B, and 1C, Table 2).

ML-2 = assay: as above; conditions: for Effect of caspase inhibitor on secreted IL-1β induction by Compound 1: 1000 nM Compound 1 with 1, 10, 100 μM inhibitor; for Secreted IL-1β in cell culture supernatant: 24, 48 and 72 hours, doses conferring similar caspase3/7 activation and viability loss; for Effect of second agent on Compound 1 induced IL-1β: ML-2 (FIG. 12)
Method: as §1, §2, §3, §4, §5

ML-2 cells = assay: Immunoblot analysis of target proteins; conditions: 24, 48 and 72 hours, doses conferring similar caspase3/7 activation and viability loss
Method: Cells were washed in ice-cold 1×PBS twice before harvest in Cell Extraction Buffer (ThermoFisher Cat No. FNN0011) supplemented with 1× Halt Protease Inhibitor Cocktail (ThermoFisher Cat No. 78429). Whole cell extracts were collected after centrifugation at 14,000 g for 10 minutes, resolved on 4-12% Bis-Tris Novex Precast Gels (ThermoFisher Cat No. WG1403A), transferred onto a nitrocellulose membrane using the Turboblot Turbo Transfer System (Bio-Rad), and probed with the indicated primary antibodies. Bound antibodies were detected with IRDye-680 or -800 conjugated secondary antibodies using a LI-COR scanner.
Antibodies used for immunoblot: mouse anti-human GSPT-1 mAb conjugated with AL647 (clone number GSPT1-164-17G9-G6, Celgene, San Diego, CA), IL-1β (R&D Systems, Cat No. AF-201-NA), cleaved caspase 3 (Cell Signaling, Cat No. 9664S), alpha-tubulin (Cell Signaling, Cat No. 3873S), cleaved Caspase-8 (Cell Signaling, Cat No. 9748S), Caspase-1 (Cell Signaling, Cat No. 3866S), HA tag (Cell Signaling, Cat No. 3724), phosphor-eIF2a (Cell Signaling, Cat No. 9721), total eIF2a (Cell Signaling, Cat No. 9722), ATF4 (Cell Signaling, Cat No. 11815S), CHOP (Abcam, Cat No. 11419), GAPDH (Cell Signaling, Cat No. 5174), rabbit anti-mouse 800 antibody (LI-COR Biosciences), rabbit anti-mouse 680 antibody (LI-COR Biosciences), mouse anti-rabbit 680 antibody (LI-COR Biosciences), mouse anti-rabbit 800 antibody (LI-COR Biosciences)
as §5

MOLM-13 = assay: Cytokine induction, electrochemiluminescence assay of culture supernatant; conditions: MOLM13 (FIG. 13)
Method: as §1, §2, §3, §4, §5

Compound: CC(C)(C)[C@H](NC(=O)c1ccc(N)c(Cl)c1)C(=O)N1CCC[C@H]1C(=O)N[C@H](C=O)CC(=O)O [VRT043198]
Effect of caspase inhibitor on secreted IL-1β induction by Compound 1 (MV4-11): did not suppress IL-1β induction to nearly the same extent as pan- or caspase 8 inhibitors
Effect of caspase inhibitor on secreted IL-1β induction by Compound 1 (ML-2; ML-2): did not suppress IL-1β induction to nearly the same extent as pan- or caspase 8 inhibitors

Effect of caspase inhibitor on secreted IL-1β induction by Compound 1 (MV4-11): significantly blocked
Effect of caspase inhibitor on secreted IL-1β induction by Compound 1 (ML-2; ML-2): significantly blocked
Compound: COC(=O)C[C@H](NC(=O)[C@H](C)NC(=O)[C@@H](NC(=O)OCc1ccccc1)C(C)C)C(=O)CF [Z-VAD-FMK] (Cbz-Val-Ala-Asp(OMe)-CH2F)

Effect of caspase inhibitor on secreted IL-1β induction by Compound 1 (MV4-11): significantly blocked
Effect of caspase inhibitor on secreted IL-1β induction by Compound 1 (ML-2; ML-2): significantly blocked
Compound: CC[C@H](C)[C@H](NC(=O)OCc1ccccc1)C(=O)N[C@@H](CCC(=O)OC)C(=O)N[C@H](C(=O)N[C@@H](CC(=O)OC)C(=O)CF)[C@@H](C)O [Z-VAD-IETD] (Cbz-IE(OMe)TD(OMe)-CH2F)

Compound: CC(C)C[C@H](NC(=O)[C@H](Cc1ccccc1)NC(=O)c1cnccn1)B(O)O [bortezomib]
IL-1β induced by ER stress / unfolded protein response inducers (ML-2; ML-2): Low levels of IL-1β was induced
Secreted IL-1β in cell culture supernatant (ML-2; ML-2): not able to induce high levels
Intracellular pro-IL-1β (immunoblot) (ML-2 cells): not able to induce high levels

Compound: C[C@]12CCC(=O)C=C1CC[C@@H]1[C@@H]2[C@@H](O)C[C@@]2(C)[C@H]1CC[C@]2(O)C(=O)CO [cortisol]
Effect of second agent on Compound 1 induced IL-1β (MOLM-13): can be suppressed
Effect of second agent on Compound 1 induced IL-1β (ML-2): can be suppressed

Compound: C[C@]12CCC(=O)C=C1CC[C@@H]1[C@@H]2C(=O)C[C@@]2(C)[C@H]1CC[C@]2(O)C(=O)CO [cortisone]
Effect of second agent on Compound 1 induced IL-1β (MOLM-13): can be suppressed
Effect of second agent on Compound 1 induced IL-1β (ML-2): can be suppressed

Compound: C[C@@H]1C[C@@H]([C@H](O)CC2CC(=O)NC(=O)C2)C(=O)[C@@H](C)C1 [cycloheximide, reference compound]
Secreted IL-1β in cell culture supernatant (ML-2; ML-2): not able to induce high levels
Intracellular pro-IL-1β (immunoblot) (ML-2 cells): not able to induce high levels
